Data on 18 molecules can be found in publication PMC2746312, “A High-Throughput Approach for Identification of Novel General Anesthetics” (PLoS ONE, 2009).

Entries after “also recorded” stand apart in the source; their conditions may differ. Counter-ions that a name gives are not always drawn. Like-named read-outs stand apart in the source and are kept apart here.

In one assay the target is T1, apoferritin (Equus caballus, UniProt P02791).
T1 sequence (P02791 2-175 limits assumed): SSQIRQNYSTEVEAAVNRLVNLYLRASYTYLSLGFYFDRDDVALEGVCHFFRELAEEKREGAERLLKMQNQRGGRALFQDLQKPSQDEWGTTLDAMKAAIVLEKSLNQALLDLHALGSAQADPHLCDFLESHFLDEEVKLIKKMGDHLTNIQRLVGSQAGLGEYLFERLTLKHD
Put plainly: Isothermal titration calorimetry (ITC) of compound into apoferritin. As to conditions: for ITC evidence of binding (in words): enthalpogram. (Isothermal titration calorimetry measures the heat released or taken up as one component is titrated into another.)

The target in the next assay is T2, horse spleen apoferritin (Equus caballus, UniProt P02791).
T2 sequence (P02791 2-175 limits assumed): T1 sequence (P02791 2-175 limits assumed)
Put plainly: 1-AMA/apoferritin fluorescence competition assay, qHTS in 1,536-well format. The assay is classed as binding. As to conditions: for inhibition at 77 µM: read-out: inhibition at maximal concentrations in qHTS. On the procedure: The previously-reported apoferritin-1-AMA binding assay was miniaturized to 3 µL in 1,536-well plates.
Throughout the screen, reagent bottles and all liquid lines were made light-tight to minimize reagent degradation. Activity was computed as the normalized fluorescence response relative to free 1-AMA and 1-AMA/apoferritin complex values. Concentration–effect relationships were derived by using publicly-available curve-fitting algorithms developed in-house (http://ncgc.nih.gov/pub/openhts/). A four parameter Hill equation was fitted to the concentration-response data by minimizing the residual error between the modeled and observed responses.

Setting [1] is: computed directly from 1-AMA inhibition data, infinite value fixed to -70%, seven concentrations 77 µM to 25 nM, read-out: qHTS IC50.

In the case of `CC(N)c1cccc(Cl)c1Cl` (racemic) [D-103, (±)-2,3-Dichloro-alpha-methylbenzylamine hydrochloride], binding on apoferritin was characterised by a dissociation constant (Kd) of 506 µM. In addition, the IC50 on horse spleen apoferritin (setting [1]) came to 94 µM.

On apoferritin, `CCOC(=O)C(C)(C)Oc1ccc(Cl)cc1` [C-6643, Clofibrate] gave a Kd of 11.5 µM. Further, at horse spleen apoferritin (setting [1]), the IC50 was 105 µM.

In the case of `O=c1oc(Cl)c(Cl)c2ccccc12` [D-7910, 3,4-Dichloroisocoumarin], the IC50 on horse spleen apoferritin (setting [1]) amounted to 129 µM.

The molecule `CC(C)c1cccc(C(C)C)c1O` [D-126608, 2,6-diisopropylphenol (propofol)] registered a Kd at apoferritin of 5 µM. This molecule also returned an IC50 at horse spleen apoferritin of 67 µM. Further, the “qHTS screen outcome (in words)” value at horse spleen apoferritin (LOPAC1280 screen with filters) is “successfully identified in this screen”.

`CC1(C)CCC2=C(O1)c1ccccc1C(=O)C2=O` [L-2037, β-Lapachone]: on horse spleen apoferritin (setting [1]), the IC50 turned out to be 33 µM.

Turning to `c1ccc([C@H]2CN3CCSC3=N2)cc1` [L-9756, (-)-Tetramisole hydrochloride], binding at apoferritin was put at a Kd of 233 µM. Besides, the IC50 at horse spleen apoferritin (setting [1]) came to 194 µM.

Regarding `C#CCN(C)C(C)Cc1ccccc1` (stereo not drawn) [M-003, R-(-)-Deprenyl hydrochloride], the Kd at apoferritin amounted to 74 µM. At horse spleen apoferritin, this molecule returned a 50% inhibitory concentration (IC50) of 100 µM.

Molecule `Cc1cccc(C#Cc2ccccc2)n1` [M-5435, 6-Methyl-2-(phenylethynyl)pyridine] returned a Kd at apoferritin of 313 µM. At horse spleen apoferritin (setting [1]), the IC50 came out at 152 µM.

`CN(N=O)c1ccc(O)c(O)c1` [M-9440, Methyl-3,4-dephostatin] yielded a Kd at apoferritin of 284 µM. The IC50 on horse spleen apoferritin was 155 µM.

Regarding `O=Nc1ccc2oc(=O)ccc2c1` [N-8403, 6-Nitroso-1,2-benopyrone], on apoferritin, the dissociation constant Kd stood at 37.9 µM. For the same molecule, the IC50 at horse spleen apoferritin (setting [1]) came out at 107 µM.

`C=C1C(=O)O[C@H]2[C@H]1CC/C(C)=C/CC[C@@]1(C)O[C@@H]21` [P-0667, Parthenolide] came in with a dissociation constant Kd on apoferritin of 35.9 µM. For the same molecule, on horse spleen apoferritin (setting [1]), the half-inhibitory concentration (IC50) is 68 µM.

`COc1ccc2c(c1)/C(=C/c1cnc[nH]1)C(=O)N2` [S-1693, SU 9516]: the “ITC evidence of binding (in words)” value on apoferritin is on record as “failed to provide convincing evidence of binding”. Besides, at horse spleen apoferritin, the inhibition at 77 µM is approximately 30%. In addition, the IC50 on horse spleen apoferritin (setting [1]) came to 88 µM.

In the case of `Oc1ccc(C2CNCc3sccc32)cc1O` (stereo not drawn) [S-3066, SKF-89626 hydrobromide], the “ITC evidence of binding (in words)” value at apoferritin is given as “does not; also recorded: failed to provide convincing evidence of binding”. Besides, the inhibition at 77 µM on horse spleen apoferritin is approximately 30%.

For the molecule `Cc1ccc(O)c(/N=N/c2ccccc2)n1` [S-9186, SIB 1757], on horse spleen apoferritin (setting [1]), the IC50 was found to be 42 µM.

`CCSC(=N)Nc1ccc(C(F)(F)F)cc1` [T7188, TFPI hydrochloride]: the dissociation constant (Kd) on apoferritin turned out to be 25.3 µM. In addition, the half-maximal inhibitory concentration (IC50) at horse spleen apoferritin (setting [1]) worked out at 98 µM.

Consider `N#C/C(=C\c1ccc(O)c(O)c1)C(N)=S` [T-7540, Tyrphostin 47], for which, at apoferritin, the affinity, expressed as Kd, was 189 µM. Also, the IC50 on horse spleen apoferritin (setting [1]) was 219 µM.

On to `S=C([S-])OC1CC2CC1C1CCCC21.[K+]` (stereo not drawn) [T-8543, O-Tricyclo[5.2.1.0^2,6]dec-9-yl dithiocarbonate potassium salt], for which, at apoferritin, binding was characterised by a dissociation constant (Kd) of 12.3 µM and the “ITC evidence of binding (in words)” value is listed as “clear exothermic binding behavior”. Further, the IC50 on horse spleen apoferritin (setting [1]) was 16 µM.

Regarding `Cc1cc(C(C)(C)C)cc(C)c1CC1=NCCN1` [X-6000, Xylometazoline hydrochloride], on apoferritin, binding was put at a Kd of 177 µM. Further, at horse spleen apoferritin, the IC50 came out at 167 µM.

The term Kd denotes a measure of binding affinity in units of concentration. A high value points to lower affinity. One may read the IC50 as the concentration at which inhibition is half-maximal.
